# Data reported in patent US12054494B2, “Compound with anticancer activity” (KYOWA KIRIN CO., LTD., priority 2018, dated 2024).
# Tested on: SU-DHL-4 cells
# Assay: Inhibitory effect on cell viability (Cell Counting Kit-8)
# Type: cell-based
# Details: Homo sapiens, 72 hours culture with test compound, concentration showing 90% inhibition rate of cell viability
# Summary of the method: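 SU-DHL-4 cells (2000/well, RPMI1640 with 10% FBS) precultured 18-25 h, then exposed to a 9-step compound dilution series (0.1% DMSO final) for 72 h at 37° C. Viability by CCK-8 absorbance at 450 nm after 2-3 h; IC90 computed from inhibition rate relative to untreated and cell-free wells.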
row,SMILES,IC90
1,"CCC(=O)N1c2ccccc2[C@H](Nc2ccc(NC(=O)CCCC(=O)Nc3ccc(C4=NCc5nnc(C)n5-c5sc(C)c(C)c54)cc3)cc2)C[C@@H]1C (relative stereo) [Compound 14t, N^1-(4-(((2S*,4R*)-2-Methyl-1-propionyl-1,2,3,4-tetrahydroquinolin-4-yl)amino)phenyl)-N^5-(4-(2,3,9-trimethyl-6H-thieno[3,2-f][1,2,4]triazolo[4,3-a][1,4]diazepin-4-yl)phenyl)glutaramide]",1.17 nM
2,"CCC(=O)N1c2ccccc2[C@H](Nc2ccc(C(=O)NCc3cn(-c4ccc(Cn5c(CC)cc6c5CCCC6=O)cc4)nn3)cc2)C[C@@H]1C [Compound 15h, N-((1-(4-((2-Ethyl-4-oxo-4,5,6,7-tetrahydro-1H-indol-1-yl)methyl)phenyl)-1H-1,2,3-triazol-4-yl)methyl)-4-(((2S,4R)-2-methyl-1-propionyl-1,2,3,4-tetrahydroquinolin-4-yl)amino)benzamide]",2.32 nM
3,"CCC(=O)N1c2ccccc2[C@H](NCCOCCOCc2cn(-c3ccc(N[C@@H]4C[C@H](C)N(C(=O)CC)c5ccccc54)cc3)nn2)C[C@@H]1C (relative stereo) [Compound 12e, 1-((2S*,4R*)-2-Methyl-4-((2-(2-((1-(4-(((2S,4R)-2-methyl-1-propionyl-1,2,3,4-tetrahydroquinolin-4-yl)amino)phenyl)-1H-1,2,3-triazol-4-yl)methoxy)ethoxy)ethyl)amino)-3,4-dihydroquinolin-1(2H)-yl)propan-1-one]",73.7 nM
4,"CCC(=O)N1c2ccccc2[C@H](Nc2ccc(SCCNC(=O)c3ccc(C4=N[C@@H](CC(=O)OCCN(C)C)c5nnc(C)n5-c5sc(C)c(C)c54)cc3)cc2)C[C@@H]1C [Compound 13a, 2-(Dimethylamino)ethyl 2-((S)-2,3,9-trimethyl-4-(4-((2-((4-(((2S,4R)-2-methyl-1-propionyl-1,2,3,4-tetrahydroquinolin-4-yl)amino)phenyl)thio)ethyl)carbamoyl)phenyl)-6H-thieno[3,2-f][1,2,4]triazolo[4,3-a][1,4]diazepin-6-yl)acetate]",0.49 nM
5,"CCC(=O)N1c2ccccc2[C@H](Nc2ccc(-c3cn4c(n3)CN(C(=O)c3ccc(C5=NCc6nnc(C)n6-c6sc(C)c(C)c65)cc3)CC4)cc2)C[C@@H]1C [Compound 14r, 1-((2S,4R)-2-Methyl-4-((4-(7-(4-(2,3,9-trimethyl-6H-thieno[3,2-f][1,2,4]triazolo[4,3-a][1,4]diazepin-4-yl)benzoyl)-5,6,7,8-tetrahydroimidazo[1,2-a]pyrazin-2-yl)phenyl)amino)-3,4-dihydroquinolin-1(2H)-yl)propan-1-one]",1.47 nM
6,"CCC(=O)N1c2ccccc2[C@H](Nc2ccc(C(=O)N3CCn4c(-c5ccc(N[C@@H]6C[C@H](C)N(C(=O)CC)c7ccccc76)cc5)cnc4C3)cc2)C[C@@H]1C [Compound 3e, 1-[(2S,4R)-2-Methyl-4-({4-[3-(4-{[(2S,4R)-2-methyl-1-propionyl-1,2,3,4-tetrahydroquinolin-4-yl]amino}phenyl)-5,6,7,8-tetrahydroimidazo[1,2-a]pyrazine-7-carbonyl]phenyl}amino)-3,4-dihydroquinolin-1(2H)-yl]propan-1-one]",0.12 nM
7,"CCC(=O)N1c2ccccc2[C@H](Nc2ccc(NC(=O)CNC(=O)Nc3ccc(C4=NCc5nnc(C)n5-c5sc(C)c(C)c54)cc3)cc2)C[C@@H]1C [Compound 14f, N-(4-(((2S,4R)-2-Methyl-1-propionyl-1,2,3,4-tetrahydroquinolin-4-yl)amino)phenyl)-2-(3-(4-(2,3,9-trimethyl-6H-thieno[3,2-f][1,2,4]triazolo[4,3-a][1,4]diazepin-4-yl)phenyl)ureido)acetamide]",0.31 nM
8,"CCC(=O)N1c2ccccc2[C@H](Nc2ccc(NC(=O)C3CN(C(=O)N4CCC(N[C@@H]5C[C@H](C)N(C(=O)CC)c6ccccc65)CC4)C3)cc2)C[C@@H]1C [Compound 10a, N-(4-(((2S,4R)-2-Methyl-1-propionyl-1,2,3,4-tetrahydroquinolin-4-yl)amino)phenyl)-1-(4-(((2S,4R)-2-methyl-1-propionyl-1,2,3,4-tetrahydroquinolin-4-yl)amino)piperidine-1-carbonyl)azetidine-3-carboxamide]",2.4 nM

# Continued, values first:
row,IC90,SMILES
1,16.3 nM,"CCC(=O)N1c2ccccc2[C@H](Nc2ccc(NC(=O)[C@@H](NC(=O)c3ccc(N[C@@H]4C[C@H](C)N(C(=O)CC)c5ccccc54)cc3)C(C)C)cc2)C[C@@H]1C (relative stereo) [Compound 2e, N-{(S)-3-Methyl-1-[(4-{[(2S*,4R*)-2-methyl-1-propionyl-1,2,3,4-tetrahydroquinolin-4-yl]amino}phenyl)amino]-1-oxobutan-2-yl}-4-{[(2S,4R)-2-methyl-1-propionyl-1,2,3,4-tetrahydroquinolin-4-yl]amino}benzamide]"
2,26.3 nM,"CCC(=O)N1c2ccccc2[C@H](Nc2ccc(NC(=O)CCCC(=O)Nc3ccc(N[C@@H]4C[C@H](C)N(C(=O)CC)c5cc(/C=C/CN)ccc54)cc3)cc2)C[C@@H]1C (relative stereo) [Compound 10t, N^1-(4-(((2S*,4R*)-7-((E)-3-Aminoprop-1-en-1-yl)-2-methyl-1-propionyl-1,2,3,4-tetrahydroquinolin-4-yl)amino)phenyl)-N^5-(4-(((2S,4R)-2-methyl-1-propionyl-1,2,3,4-tetrahydroquinolin-4-yl)amino)phenyl)glutaramide]"
3,5.87 nM,"CCC(=O)N1c2ccccc2[C@H](Nc2ccc(NC(=O)CC(C)CC(=O)Nc3ccc(N[C@@H]4C[C@H](C)N(C(=O)CC)c5ccccc54)cc3)cc2)C[C@@H]1C (relative stereo) [Compound 4b, 3-Methyl-N^1,N^5-bis(4-{[(2S*,4R*)-2-methyl-1-propionyl-1,2,3,4-tetrahydroquinolin-4-yl]amino}phenyl)pentanediamide]"
4,0.67 nM,"CCC(=O)N1c2ccccc2[C@H](Nc2ccc(NC(=O)CNCC(=O)Nc3ccc(N[C@@H]4C[C@H](C)N(C(=O)CC)c5ccccc54)cc3)cc2)C[C@@H]1C [Compound 5d, 2,2′-Azanediylbis(N-(4-(((2S,4R)-2-methyl-1-propionyl-1,2,3,4-tetrahydroquinolin-4-yl)amino)phenyl)acetamide)]"
5,0.03 nM,"CCC(=O)N1c2ccccc2[C@H](Nc2ccc(NC(=O)C3CN(C(=O)c4ccc(N[C@@H]5C[C@H](C)N(C(=O)CC)c6ccccc65)cc4)C3)cc2)C[C@@H]1C (relative stereo) [Compound 2h, 1-(4-{[(2S,4R)-2-Methyl-1-propionyl-1,2,3,4-tetrahydroquinolin-4-yl]amino}benzoyl)-N-(4-{[(2S*,4R*)-2-methyl-1-propionyl-1,2,3,4-tetrahydroquinolin-4-yl]amino}phenyl)azetidine-3-carboxamide]"
6,41.5 nM,"CCC(=O)N1c2ccccc2[C@H](Nc2ccc(C(=O)N3CCCN(C(=O)c4ccc(N[C@@H]5C[C@H](C)N(C(=O)CC)c6ccccc65)cc4)CC3)cc2)C[C@@H]1C [Compound 6p, 1,1′-((2S,2′S,4R,4′R)-(((1,4-Diazepane-1,4-dicarbonyl)bis(4,1-phenylene))bis(azanediyl))bis(2-methyl-3,4-dihydroquinoline-4,1(2H)-diyl))bis(propan-1-one)]"
7,7.85 nM,"CCC(=O)N1c2ccccc2[C@H](Nc2ccc(C(=O)NC3CCN(C(=O)c4ccc(N[C@@H]5C[C@H](C)N(C(=O)CC)c6ccccc65)cc4)CC3)cc2)C[C@@H]1C (relative stereo) [Compound 1c, 4-{[(2S*,4R*)-2-Methyl-1-propionyl-1,2,3,4-tetrahydroquinolin-4-yl]amino}-N-[1-(4-{[(2S*,4R*)-2-methyl-1-propionyl-1,2,3,4-tetrahydroquinolin-4-yl]amino}benzoyl)piperidin-4-yl]benzamide]"
8,29.1 nM,"CCC(=O)N1c2ccccc2[C@H](Nc2ccc(NC(=O)[C@@H](C)NC(=O)c3ccc(N[C@@H]4C[C@H](C)N(C(=O)CC)c5ccccc54)cc3)cc2)C[C@@H]1C (relative stereo) [Compound 2c, 4-{[(2S,4R)-2-Methyl-1-propionyl-1,2,3,4-tetrahydroquinolin-4-yl]amino}-N-{(R)-1-[(4-{[(2S*,4R*)-2-methyl-1-propionyl-1,2,3,4-tetrahydroquinolin-4-yl]amino}phenyl)amino]-1-oxopropan-2-yl}benzamide]"
9,0.31 nM,"CCC(=O)N1c2ccccc2[C@H](Nc2ccc(NS(=O)(=O)CCNC(=O)c3ccc(N[C@@H]4C[C@H](C)N(C(=O)CC)c5ccccc54)cc3)cc2)C[C@@H]1C [Compound 6g, 4-(((2S,4R)-2-Methyl-1-propionyl-1,2,3,4-tetrahydroquinolin-4-yl)amino)-N-(2-(N-(4-(((2S,4R)-2-methyl-1-propionyl-1,2,3,4-tetrahydroquinolin-4-yl)amino)phenyl)sulfamoyl)ethyl)benzamide]"
10,0.01 nM,"CCC(=O)N1c2ccccc2[C@H](Nc2ccc(C(=O)NCC#CC(=O)Nc3ccc(N[C@@H]4C[C@H](C)N(C(=O)CC)c5ccccc54)nc3)cc2)C[C@@H]1C (relative stereo) [Compound 10n, 4-(((2S,4R)-2-Methyl-1-propionyl-1,2,3,4-tetrahydroquinolin-4-yl)amino)-N-(4-((6-(((2S*,4R*)-2-methyl-1-propionyl-1,2,3,4-tetrahydroquinolin-4-yl)amino)pyridin-3-yl)amino)-4-oxobut-2-yn-1-yl)benzamide]"
11,1.84 nM,"CCC(=O)N1c2ccccc2[C@H](Nc2ccc(NC(=O)[C@@H]3CCN(C(=O)c4ccc(N[C@@H]5C[C@H](C)N(C(=O)CC)c6ccccc65)cc4)C3)cc2)C[C@@H]1C (relative stereo) [Compound 2i, (R)-1-(4-{[(2S,4R)-2-Methyl-1-propionyl-1,2,3,4-tetrahydroquinolin-4-yl]amino}benzoyl)-N-(4-{[(2S*,4R*)-2-methyl-1-propionyl-1,2,3,4-tetrahydroquinolin-4-yl]amino}phenyl)pyrrolidine-3-carboxamide]"
